Experimental data: patent publication US20240024295A1, “COMPOSITIONS AND METHODS FOR INHIBITING HAIR GROWTH” (priority 2020, published 2024)

System: C3H mice
Test: Telogen Conversion Assay
Assay type: in vivo
Conditions: for Average Grades, 23 Days: average of 7 mice after 23 days; for hair regrowth as compared to the control group (placebo): applied daily to mice, at the appropriate dose-level, week 3 and week 4, FIGURE; for effect on hair growth (average grade): average grade of 7 mice after 23 days, example written in present tense
Description: FP receptor antagonists are tested for their potential to grow hair using the Telogen Conversion Assay. The Telogen Conversion Assay measures the potential of a FP receptor antagonist to inhibit in mice the conversion of hair in the resting stage of the hair growth cycle (“telogen”), to the growth stage of the hair growth cycle (“anagen”), and to assess the rate of anagen growth.
Without intending to be limited by theory, there are three principal phases of the hair growth cycle: anagen, catagen, and telogen. It is believed that there is a long telogen period in C3H mice (Harian Sprague Dawley, Inc., Indianapolis, IN) from approximately 40 days of age until about 75 days of age, when hair growth is synchronized. It is believed that after 75 days of age, hair growth is no longer synchronized. Wherein about 40 day-old mice with dark fur (brown or black) are used in hair growth experiments, melanogenesis occurs along with hair (fur) growth wherein the topical application of hair growth inducers is evaluated. The Telogen Conversion Assay herein is used to screen FP receptor antagonists for potential hair growth by measuring melanogenesis and/or inhibition of expected hair growth.
Three groups of 44 day-old C3H mice are used: a vehicle control group, a positive control group, and a test FP receptor antagonist group, wherein the test FP receptor antagonist group is administered a FP receptor antagonist. The length of the assay is typically 24 days with 15 treatment days (wherein the treatment days occur Mondays through Fridays). Day 1 is the first day of treatment. Typical dosage concentrations are set forth in Table 1, however the skilled artisan will readily understand that such concentrations may be modified.
The mice are treated topically Monday through Friday on their lower back (base of tail to the lower rib). A pipette and tip are used to deliver 400 μL to each mouse's back. The 400 μL application is applied slowly while moving hair on the mouse to allow the application to reach the skin.
While each treatment is being applied to the mouse topically, a visual grade of from 0 to 4 will be given to the skin color in the application area of each animal. As a mouse converts from telogen to anagen, its skin color will become less pink and more bluish-black.

[1] = visual skin/hair grade 0 (pink skin) to 4 (full anagen), topical

Q: Which results are given for O=C(O)CCC/C=C\CC1C(/C=C/[C@H](O)C2Cc3ccccc3C2)[C@@H](F)C[C@@H]1O (stereo partly drawn) [Example 1]?
A: Average Grades, 23 Days [1]: 0.4; Average Grades, 25 Days (visual skin/hair grade 0 (pink skin) to 4 (full anagen), average of 7 mice after 25 days, topical): 0.1; Average Grades, 26 Days (visual skin/hair grade 0 (pink skin) to 4 (full anagen), average of 7 mice after 26 days, topical): 0.7

Q: With COC(=O)CCC/C=C\CC1C(/C=C/[C@H](O)C2Cc3ccccc3C2)[C@@H](F)C[C@@H]1O (stereo partly drawn) [Example 2] as the molecule, how does the “hair regrowth as compared to the control group (placebo)” value read?
A: inhibited hair regrowth

Q: And the “Average Grades, 23 Days” value [1]?
A: 0.1

Q: How did the “hair regrowth as compared to the control group (placebo)” value turn out when O=C(N[C@H](c1ccccc1)c1ccccn1)[C@@H]1SCCN1S(=O)(=O)c1ccc(-c2ccccc2)cc1 [Example 3] was run?
A: inhibited hair regrowth

Q: And the “effect on hair growth (average grade)” value?
A: significantly reduces hair growth

Q: CC(C)OC(=O)CCC/C=C\CC1C(/C=C/[C@H](O)C2Cc3ccccc3C2)[C@@H](F)C[C@@H]1O (stereo partly drawn) [Example 4] was tested. Which “effect on hair growth (average grade)” value did it give?
A: significantly reduces hair growth

Q: How did the “effect on hair growth (average grade)” value turn out when “Ile-Leu-Gly-His-(citrulline)-Asp-Tyr-Lys [Example 5]” was run?
A: significantly reduces hair growth
